# Experimental data published in patent publication US8044213B2, “Thiazolyl-benzimidazoles” (Hoffmann-La Roche Inc., priority 2008, dated 2011).
# Biological target: T1, PLK1 (Homo sapiens, UniProt P53350)
# T1 construct: Full-length, active GST-Plk1 was purified from Sf9 insect cells; GST (N); made in house; host or cells: Sf9 insect cells
# Assay: Biochemical Characterization Assay B (peptide substrate, LABCHIP EZ Reader II)
# Settings: PLK1, peptide RRRAGALMDASFEEQ-CONH2, % conversion on LABCHIP EZ Reader II
# Experimental: Compounds were serially diluted to 6400, 2133, 711, 237, 79, 26, 8.78, 2.93, 0.98 and 0.33 μM in 100% DMSO. Diluted compound was further diluted 20 fold with Kinase Assay Buffer (KAB). Peptide RRRAGALMDASFEEQ-CONH2 (MW 2090) was diluted to 1.2 μM with KAB and ATP was added to 400 μM. PLK1 stock, prepared as described above, was diluted to 3 μg protein/mL with KAB right before it was added to MATRIX 384-Well Polypropylene Black Plates to start the reaction. 20 μL of KAB diluted compounds (or 5% DMSO in KAB for Total and Blank), 20 μL of KAB diluted peptide with ATP and 40 μL of KAB diluted PLK1 solution (KAB without PLK 1 for Blanks) were transferred to each well of the polypropylene plates. The reaction mixtures were incubated at room temperature for 40 minutes. Reactions were stopped by addition of 10 uL Reaction Stopping Buffer (RSB) to each well. Plates were then read on LABCHIP EZ Reader II from Caliper Life Science.
# The IC50 values for each compound were generated using an Excel template. The % conversion readings of Total and Blank were used as 0% and 100% inhibition. The percent inhibition values of reactions in the presence of compounds were calculated, and plotted against compound concentrations. All data were fitted into a Dose Response One Site model (4 parameter logistic model) as the following: (A+4B−A)/(1+((x/C)^13)))), with A and B as the bottom and top of the curve (highest and lowest inhibition), respectively, and C as IC50 and D as Hill Coefficient of the compound.
# T1 sequence (P53350 whole entry): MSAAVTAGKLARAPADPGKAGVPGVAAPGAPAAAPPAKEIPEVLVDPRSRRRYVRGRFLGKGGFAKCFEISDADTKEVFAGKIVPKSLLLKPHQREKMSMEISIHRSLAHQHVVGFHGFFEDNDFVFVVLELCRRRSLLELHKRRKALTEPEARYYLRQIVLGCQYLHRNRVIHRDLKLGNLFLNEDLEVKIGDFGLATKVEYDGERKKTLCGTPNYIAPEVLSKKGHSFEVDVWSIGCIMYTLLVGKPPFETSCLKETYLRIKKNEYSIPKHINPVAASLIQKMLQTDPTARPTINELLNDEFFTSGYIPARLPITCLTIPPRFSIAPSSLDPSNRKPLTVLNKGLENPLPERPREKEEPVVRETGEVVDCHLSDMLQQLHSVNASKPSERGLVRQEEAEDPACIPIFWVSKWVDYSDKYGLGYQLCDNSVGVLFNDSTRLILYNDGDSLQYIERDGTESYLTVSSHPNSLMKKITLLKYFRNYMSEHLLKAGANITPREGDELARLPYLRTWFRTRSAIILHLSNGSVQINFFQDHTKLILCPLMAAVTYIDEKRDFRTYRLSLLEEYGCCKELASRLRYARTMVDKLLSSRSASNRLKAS
row,Structure (SMILES),IC50
1,"CN(C)CCN(C)Cc1ccc2ncn(-c3nc(-c4cccc(Cl)c4)c(C(N)=O)s3)c2c1 [Example 6, 4-(3-Chloro-phenyl)-2-(6-{[(2-dimethylamino-ethyl)-methyl-amino]-methyl}-benzoimidazol-1-yl)-thiazole-5-carboxylic acid amide]",0.5 µM
2,CC(C)(C)OC(=O)NC1CCN(Cc2ccc3ncn(-c4nc(-c5cccc(Cl)c5)c(C(N)=O)s4)c3c2)CC1 [Example 12],0.666 µM
3,"NC(=O)c1sc(-n2cnc3ccc(CN4CCC(N)CC4)cc32)nc1-c1cccc(Cl)c1 [Example 13, 2-[6-(4-Amino-piperidin-1-ylmethyl)-benzoimidazol-1-yl]-4-(3-chloro-phenyl)-thiazole-5-carboxylic acid amide]",0.037 µM
4,"CN1CCC(C(=O)NC2CCN(Cc3ccc4ncn(-c5nc(-c6cccc(Cl)c6)c(C(N)=O)s5)c4c3)CC2)CC1 [Example 14, 1-Methyl-piperidine-4-carboxylic acid (1-{3-[5-carbamoyl-4-(3-chloro-phenyl)-thiazol-2-yl]3H-benzoimidazol-5-ylmethyl}-piperidin-4-yl)-amide]",1.48 µM
5,"CC(C)(C)OC(=O)NC(C)(C)C(=O)NC1CCN(Cc2ccc3ncn(-c4nc(-c5cccc(Cl)c5)c(C(N)=O)s4)c3c2)CC1 [Example 15, [1-(1-{3-[5-Carbamoyl-4-(3-chloro-phenyl)-thiazol-2-yl]-3H-benzoimidazol-5-ylmethyl}-piperidin-4-ylcarbamoyl)-1-methyl-ethyl]-carbamic acid tert-butyl ester]",5.27 µM
6,"CC(C)(N)C(=O)NC1CCN(Cc2ccc3ncn(-c4nc(-c5cccc(Cl)c5)c(C(N)=O)s4)c3c2)CC1 [Example 16, 2-{6-[4-(2-Amino-2-methyl-propionylamino)-piperidin-1-ylmethyl]-benzoimidazol-1-yl}-4-(3-chloro-phenyl)-thiazole-5-carboxylic acid amide]",1.29 µM
7,"CN1CCC(Oc2ccc3ncn(-c4nc(-c5cccc(Cl)c5)c(C(N)=O)s4)c3c2)CC1 [Example 22, 4-(3-Chloro-phenyl)-2-[6-(1-methyl-piperidin-4-yloxy)-benzoimidazol-1-yl]-thiazole-5-carboxylic acid amide]",0.018 µM
8,"NC(=O)c1sc(-n2cnc3ccc(OCC4CCNCC4)cc32)nc1-c1cccc(Cl)c1 [Example 23, 4-(3-Chloro-phenyl)-2-[6-(piperidin-4-ylmethoxy)-benzoimidazol-1-yl]-thiazole-5-carboxylic acid amide]",0.017 µM
9,"CN1CCC(COc2ccc3ncn(-c4nc(-c5cccc(Cl)c5)c(C(N)=O)s4)c3c2)CC1 [Example 24, 4-(3-Chloro-phenyl)-2-[6-(1-methyl-piperidin-4-ylmethoxy)-benzoimidazol-1-yl]-thiazole-5-carboxylic acid amide]",0.014 µM
10,"NC(=O)c1sc(-n2cnc3ccc(OCCN4CCCCC4)cc32)nc1-c1cccc(Cl)c1 [Example 27, 4-(3-Chloro-phenyl)-2-[6-(2-piperidin-1-yl-ethoxy)-benzoimidazol-1-yl]-thiazole-5-carboxylic acid amide]",0.264 µM
11,"CN1CCN(CCOc2ccc3ncn(-c4nc(-c5cccc(Cl)c5)c(C(N)=O)s4)c3c2)CC1 [Example 28, 4-(3-Chloro-phenyl)-2-{6-[2-(4-methyl-piperazin-1-yl)-ethoxy]-benzoimidazol-1-yl}-thiazole-5-carboxylic acid amide]",0.105 µM
12,"CN(C)CCOc1ccc2ncn(-c3nc(-c4cccc(Cl)c4)c(C(N)=O)s3)c2c1 [Example 29, 4-(3-Chloro-phenyl)-2-[6-(2-dimethylamino-ethoxy)-benzoimidazol-1-yl]-thiazole-5-carboxylic acid amide]",0.356 µM
13,"NC(=O)c1sc(-n2cnc3ccc(OCCCN4CCCCC4)cc32)nc1-c1cccc(Cl)c1 [Example 32, 4-(3-Chloro-phenyl)-2-[6-(3-piperidin-1-yl-propoxy)-benzoimidazol-1-yl]-thiazole-5-carboxylic acid amide]",0.08 µM
14,"NC(=O)c1sc(-n2cnc3ccc(OCCCN4CCCC4)cc32)nc1-c1cccc(Cl)c1 [Example 34, 4-(3-Chloro-phenyl)-2-[6-(3-pyrrolidin-1-yl-propoxy)-benzoimidazol-1-yl]-thiazole-5-carboxylic acid amide]",0.05 µM
15,"NC(=O)c1sc(-n2cnc3ccc(OCCCN(CCO)CCO)cc32)nc1-c1cccc(Cl)c1 [Example 35, 2-(6-{3-[Bis-(2-hydroxy-ethyl)-amino]-propoxy}-benzoimidazol-1-yl)-4-(3-chloro-phenyl)-thiazole-5-carboxylic acid amide]",0.068 µM
16,"NC(=O)c1sc(-n2cnc3ccc(OCCCNCCO)cc32)nc1-c1cccc(Cl)c1 [Example 36, 4-(3-Chloro-phenyl)-2-{6-[3-(2-hydroxy-ethylamino)-propoxy]-benzoimidazol-1-yl}-thiazole-5-carboxylic acid amide]",0.08 µM
17,"CN1CCN(CCCCOc2ccc3ncn(-c4nc(-c5cccc(Cl)c5)c(C(N)=O)s4)c3c2)CC1 [Example 37, 4-(3-Chloro-phenyl)-2-{6-[4-(4-methyl-piperazin-1-yl)-butoxy]-benzoimidazol-1-yl}-thiazole-5-carboxylic acid amide]",0.027 µM
18,"NC(=O)c1sc(-n2cnc3ccc(OCCCCN4CCOCC4)cc32)nc1-c1cccc(Cl)c1 [Example 38, 4-(3-Chloro-phenyl)-2-[6-(4-morpholin-4-yl-butoxy)-benzoimidazol-1-yl]-thiazole-5-carboxylic acid amide]",0.011 µM
19,"CN1CCN(CC(O)COc2ccc3ncn(-c4nc(-c5cccc(Cl)c5)c(C(N)=O)s4)c3c2)CC1 (stereo not drawn) [Example 39, 4-(3-Chloro-phenyl)-2-{6-[2-hydroxy-3-(4-methyl-piperazin-1-yl)-propoxy]-benzoimidazol-1-yl}-thiazole-5-carboxylic acid amide]",0.05 µM
20,"NC(=O)c1sc(-n2cnc3ccc(OCC(O)CN4CCOCC4)cc32)nc1-c1cccc(Cl)c1 (stereo not drawn) [Example 40, 4-(3-Chloro-phenyl)-2-[6-(2-hydroxy-3-morpholin-4-yl-propoxy)-benzoimidazol-1-yl]-thiazole-5-carboxylic acid amide]",0.013 µM
21,"NC(=O)c1sc(-n2cnc3ccc(CCCCN4CCOCC4)cc32)nc1-c1cccc(Cl)c1 [Example 41, 4-(3-Chloro-phenyl)-2-[6-(4-morpholin-4-yl-butyl)-benzoimidazol-1-yl]-thiazole-5-carboxylic acid amide]",0.016 µM
22,"COc1cc2ncn(-c3nc(-c4cccc(Cl)c4)c(C(N)=O)s3)c2cc1OCCCN1CCOCC1 [Example 43, 4-(3-Chloro-phenyl)-2-[5-methoxy-6-(3-morpholin-4-yl-propoxy)-benzoimidazol-1-yl]-thiazole-5-carboxylic acid amide]",0.008 µM
23,"COc1cc2ncn(-c3nc(-c4cccc(Cl)c4)c(C(N)=O)s3)c2cc1OCCN1CCN(C)CC1 [Example 44, 4-(3-Chloro-phenyl)-2-{5-methoxy-6-[2-(4-methyl-piperazin-1-yl)-ethoxy]-benzoimidazol-1-yl}-thiazole-5-carboxylic acid amide]",0.061 µM
24,"COc1cc2ncn(-c3nc(-c4cccc(Cl)c4)c(C(N)=O)s3)c2cc1OCCN1CCOCC1 [Example 45, 4-(3-Chloro-phenyl)-2-[5-methoxy-6-(2-morpholin-4-yl-ethoxy)-benzoimidazol-1-yl]-thiazole-5-carboxylic acid amide]",0.026 µM
